In US12428370B2, “Haloallylamine dual amine oxidase inhibitors” (Syntara Limited, priority 2020, dated 2025):
Structures can show the parent of a compound that is named as a salt.

Key:
[1] = molecular target: T1, Muscle and Heart Tissue MAO-A (Mus musculus, UniProt Q64133); experiment: Mouse muscle and heart tissue MAO-A activity after oral administration; type: in vivo
T1 construct: Skeletal muscle was pulverized in liquid nitrogen and then suspended in ice-cold HEPES buffered media; from tissue; host or cells: skeletal muscle and heart of C57BL/6J and mdx mice (mitochondrial extract)
T1 sequence (Q64133 1-526): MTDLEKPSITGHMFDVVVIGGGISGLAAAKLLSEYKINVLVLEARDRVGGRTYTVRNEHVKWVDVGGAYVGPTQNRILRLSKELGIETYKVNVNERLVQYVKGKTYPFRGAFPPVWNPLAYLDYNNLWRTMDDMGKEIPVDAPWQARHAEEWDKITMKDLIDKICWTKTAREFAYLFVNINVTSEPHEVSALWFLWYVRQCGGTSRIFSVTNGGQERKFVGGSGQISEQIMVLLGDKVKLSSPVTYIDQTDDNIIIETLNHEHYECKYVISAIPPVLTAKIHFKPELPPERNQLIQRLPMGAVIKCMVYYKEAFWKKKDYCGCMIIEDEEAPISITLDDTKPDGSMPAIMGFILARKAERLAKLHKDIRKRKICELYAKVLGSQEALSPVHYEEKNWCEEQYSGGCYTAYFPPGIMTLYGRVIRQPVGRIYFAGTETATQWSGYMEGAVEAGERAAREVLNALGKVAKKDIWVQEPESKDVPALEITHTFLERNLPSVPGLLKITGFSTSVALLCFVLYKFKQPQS
Procedure: Mice were orally administered the compound under study and sacrificed at various time points and abdominal fat, muscle and heart tissue collected.
Skeletal muscle was pulverized in liquid nitrogen and then suspended in ice-cold HEPES buffered media (20 mM HEPES, 0.8% w/v free-fatty acid bovine serum albumin (BSA), 75 mM sucrose, 10 mM EDTA, 215 mM D-mannitol, pH 7.4). Homogenized and then centrifuged at 2,500 rpm for 10 minutes at 4° C. Supernatant transferred and centrifuged at 10,000 rpm for 8 minutes. Supernatant discarded and the resultant pellet containing the mitochondrial extract re-suspended in 0.1 M sodium phosphate buffer solution (1:3 ratio).
Heart muscle was washed with PBS solution three times over ice. Homogenate and extract was then prepared as described for the skeletal muscle.
MAO-A activity was determined by using a selective MAO-B inhibitor mofegiline (at 30 nM) to establish the high signal and a mixture of specific MAO-A inhibitor (clorgyline) and mofegiline (at 30 nM) to determine the low signal.
Activity of the treated samples was analyzed using the fluorometric method described in EXAMPLE 9 for SSAO/VAP-1 activity, EXAMPLE 10 for MAO-B and EXAMPLE 11 for MAO-A activity (FIG. 8 and FIG. 9).

[2] = system: mdx mice (C57BL/10ScSn-Dmdmdx/J); experiment: Mouse model of Duchenne muscular dystrophy, PXS-5131; type: in vivo; details: 6 mg/kg/day oral, 4 weeks, 3 months old mdx mice
Procedure: mdx mice (C57BL/10ScSn-Dmdmdx/J) were obtained from Jackson Laboratories, Maine, US. […] Untreated, age-matched animals were used as controls. The drug was administered using small palatable gelatin pellets prepared with 10% gelatin in 20% sucralose plus food flavoring (Zhang L. Protoc. Exch. 2011, 236) Animals were pre-conditioned to recognize and eat the gelatins with a three-day routine involving overnight fasting followed by exposure of each single animal to the gelatin without the active principle, in the absence of other food. Palatability was further improved by dipping the pellets in corn oil containing trace amounts of almond oil and then breading them with pulverized food pellet.
Muscle function in vivo was assessed for the gastrocnemius muscle, as described by Blaauw B. et al., Hum. Mol. Genet. 2008, 17, 3686-3696. Mice were anesthetized, and electrodes were placed on either side of the sciatic nerve, while the common peroneal nerve was cut. Muscle torque production was measured using a lever system (Aurora Scientific 305B). A lever arm of 2.1 mm was used for all groups, as no major differences in body weight between various groups was observed. Eccentric contractions were performed by moving the foot backward at a velocity of 40 mm/s while the gastrocnemius was stimulated with a frequency sufficient to induce full tetanic fusion (100 Hz). Contractions were repeated once every 20 s to avoid inducing fatigue (see FIG. 6).
After the force measurements described above, animals were sacrificed by cervical dislocation and the skeletal muscle and the heart (minus the atria) were collected, flash-frozen in isopentane pre-cooled with liquid nitrogen and stored at −80° C. 12 μm sections from a limb muscle (tibialis anterior) were prepared with a cryotome; multiple serial slides were prepared, containing sections from at least three different levels. The same procedure was used to prepare heart transverse sections.
The amount of the neutrophil and macrophage infiltration was determined in serial sections of skeletal muscle prepared as described above, which were fixed and then stained via immunofluorescence with an anti Ly6G and an anti F4/80 antibody (AbCam, ab25377 and ab6640, for neutrophils and macrophages, respectively). The amount of infiltrate was assessed as percentage of fluorophore-positive pixel over the total area of the sections, using Image-J software (FIGS. 7A and B).
The amount of reactive oxygen species (ROS) present in the skeletal muscle tissue sections was assessed using dihydroethidium (DHE, Sigma) as a fluorescent probe in freshly cut tissue sections as described by Menazza et al., et al., Hum. Mol. Genet. 2010, 19, 4207-4215. In the presence of ROS, DHE is oxidized forming ethidium, which then can bind to nuclear DNA and emit red fluorescence. The amount of the red fluorescence was then measured from at least 20 random fields per each section using the Metafluor software (Leica), and data were averaged per field (FIG. 7C).
The percentage of fibrotic tissue in skeletal muscle was determined by picrosirius red staining. […] Whole images of at least three sections per muscle sample were then acquired with a bright field microscope and then analyzed with Image-J software, in order to measure the percentage of fibrotic (red) areas with respect to the total surface (FIG. 7D).

| Structure (SMILES) | heart and muscle MAO-A activity ([1]; C57BL/6J mice, single oral dose, 4 and 24 hours after administration, FIG. 9) | muscle MAO-A activity ([1]; mdx mice (C57BL/10ScSn-Dmdmdx/J), oral, FIG. 11) | neutrophil influx in the tibialis anterior muscle ([2]; p<0.0001, FIG. 7A) | macrophage influx in the tibialis anterior muscle ([2]; p<0.0001, FIG. 7B) | reactive oxygen species in the tibialis anterior muscle ([2]; p<0.0001, FIG. 7C) | fibrosis (picrosirius red staining) in the tibialis anterior muscle ([2]; p<0.0001, FIG. 7D) | loss of force caused by eccentric contractions in the gastrocnemius muscle ([2]; p<0.05, FIG. 6) |
| --- | --- | --- | --- | --- | --- | --- | --- |
| N#Cc1ccc(OC/C(=C/F)CN)cc1 [Compound 1, (E)-4-((2-(aminomethyl)-3-fluoroallyl)oxy) benzonitrile] | no inhibitory effect | no inhibitory effect |  |  |  |  |  |
| NC/C(=C\F)C1Cc2ccccc2O1 (single isomer, unassigned; (-)) [PXS-5131, (−)-(E)-2-(2,3-Dihydrobenzofuran-2-Yl)-3-Fluoroprop-2-En-1-Amine Hydrochloride] |  |  | significantly reduces | significantly reduces | significantly reduces | significantly reduces | helps protect against the loss of force |
